Values of other authors, collected in US20110015182A1, “NOVEL CARBAMATE AMINO ACID AND PEPTIDE PRODRUGS OF OPIOIDS AND USES THEREOF” (priority 2009, published 2011).

Experiments:
[1] = Norbury et al. (1983)
[2] = concurrent oral administration with various opioids; Linn and Steinbrook (2007)

Structure (SMILES) | range of observed oral bioavailabilities [1] | adverse GI effects of opioids (constipation, nausea and vomiting) [2]
CCC1(c2cccc(O)c2)CCCCN(C)C1 (centres unmarked) [meptazinol] | 2-20% | 
C[C@H]1CN(C[C@H](Cc2ccccc2)C(=O)NCC(=O)O)CC[C@@]1(C)c1cccc(O)c1 [alvimopan] |  | markedly reduce
